Holding throughout (type): cell-based
Experiment [1] concerns Aβ42. Kind of experiment: Screening for γ-secretase-modulating activity, Method 2: Aβ42 Alphalisa on SKNBE2 cell supernatant. Conditions: Method 2, Table 3c, SKNBE2 cells carrying APP 695 wild type, overnight incubation. The procedure:
(§1) Screening was carried out using SKNBE2 cells carrying the APP 695—wild type, grown in Dulbecco's Modified Eagle's Medium/Nutrient mixture F-12 (DMEM/NUT-mix F-12) (HAM) provided by Invitrogen (cat no. 10371-029) containing 5% Serum/Fe supplemented with 1% non-essential amino acids, 1-glutamine 2 mM, Hepes 15 mM, penicillin 50 U/ml (units/ml) en streptomycin 50 μg/ml. Cells were grown to near confluency.
(§2) The screening was performed using a modification of the assay as described in Citron et al (1997) Nature Medicine 3: 67. Briefly, cells were plated in a 384-well plate at 10^4 cells/well in Ultraculture (Lonza, BE12-725F) supplemented with 1% glutamine (Invitrogen, 25030-024), 1% non-essential amino acid (NEAA), penicillin 50 U/ml en streptomycin 50 μg/ml in the presence of test compound at different test concentrations. The cell/compound mixture was incubated overnight at 37° C., 5% CO2. The next day the media were assayed by two sandwich immuno-assays, for Aβ42 and Aβtotal.
(§3) Aβtotal and Aβ42 concentrations were quantified in the cell supernatant using the Aphalisa technology (Perkin Elmer). Alphalisa is a sandwich assay using biotinylated antibody attached to streptavidin coated donorbeads and antibody conjugated to acceptor beads. In the presence of antigen, the beads come into close proximity. The excitation of the donor beads provokes the release of singlet oxygen molecules that trigger a cascade of energy transfer in the acceptor beads, resulting in light emission. To quantify the amount of Aβ42 in the cell supernatant, monoclonal antibody specific to the C-terminus of Aβ42 (JRF/cAβ42/26) was coupled to the receptor beads and biotinylated antibody specific to the N-terminus of Aβ (JRF/AβN/25) was used to react with the donor beads. To quantify the amount of Aβtotal in the cell supernatant, monoclonal antibody specific to the N-terminus of Aβ (JRF/AβN/25) was coupled to the receptor beads and biotinylated antibody specific to the mid region of Aβ (biotinylated 4G8) was used to react with the donor beads.
(§4) To obtain the values reported in Table 3c, the data were calculated as percentage of the maximum amount of amyloid Beta 42 measured in the absence of the test compound. The sigmoidal dose response curves were analyzed using non-linear regression analysis with percentage of the control plotted against the log concentration of the compound. A 4-parameter equation was used to determine the IC50.

Experiment [2] deals with Aβtotal. As to the kind of experiment: Screening for γ-secretase-modulating activity, Method 2: Aβtotal Alphalisa on SKNBE2 cell supernatant. Conditions: Method 2, Table 3c, SKNBE2 cells carrying APP 695 wild type, overnight incubation. The procedure:
as §1, §2, §3, §4

Experiment [3] relates to Aβ42. Kind of experiment: Screening for γ-secretase-modulating activity, Method 1: Aβ42 sandwich ELISA on SKNBE2 cell media. Conditions: SKNBE2 cells carrying APP 695 wild type. As for the experimental part:
(§5) Screening was carried out using SKNBE2 cells carrying the APP 695—wild type, grown in Dulbecco's Modified Eagle's Medium/Nutrient mixture F-12 (DMEM/NUT-mix F-12) (HAM) provided by Gibco (cat no. 31330-38) containing 5% Serum/Fe supplemented with 1% non-essential amino acids. Cells were grown to near confluency.
(§6) The screening was performed using the assay as described in Citron et al (1997) Nature Medicine 3: 67. Briefly, cells were plated in a 96-well plate at about 10^5 cells/ml one day prior to addition of compounds. Compounds were added to the cells in Ultraculture (Lonza, BE12-725F) supplemented with 1% glutamine (Invitrogen, 25030-024) for 18 hours. The media were assayed by two sandwich ELISAs, for Aβ42 and Aβtotal. Toxicity of the compounds was assayed by WST-1 cell proliferation reagent (Roche, 1 644 807) according to the manufacturer's protocol.
To quantify the amount of Aβ42 in the cell supernatant, commercially available Enzyme-Linked-Immunosorbent-Assay (ELISA) kits were used (Innotest® β-Amyloid(1-42), Innogenetics N.V., Ghent, Belgium). The Aβ42 ELISA was performed essentially according to the manufacturer's protocol. Briefly, the standards (dilutions of synthetic Aβ1-42) were prepared in polypropylene Eppendorf with final concentrations of 8000 down to 3.9 pg/ml (1/2 dilution step). Samples, standards and blanks (100 μl) were added to the anti-Aβ42-coated plate supplied with the kit (the capture antibody selectively recognizes the C-terminal end of the antigen). The plate was allowed to incubate 3 h at 25° C. in order to allow formation of the antibody-amyloid complex. Following this incubation and subsequent wash steps a selective anti-Aβ-antibody conjugate (biotinylated 3D6) was added and incubated for a minimum of 1 hour in order to allow formation of the antibody-Amyloid-antibody-complex. After incubation and appropriate wash steps, a Streptavidine-Peroxidase-Conjugate was added, followed 30 minutes later by an addition of 3,3′,5,5′-tetramethylbenzidine (TMB)/peroxide mixture, resulting in the conversion of the substrate into a coloured product. This reaction was stopped by the addition of sulfuric acid (0.9 N) and the colour intensity was measured by means of photometry with an ELISA-reader with a 450 nm filter.
(§7) To obtain the values reported in Table 3a, the sigmoidal dose response curves were analysed by computerised curve-fitting, with percent of inhibition plotted against compound concentration. A 4-parameter equation (model 205) in XLfit was used to determine the IC50. The top and the bottom of the curve were fixed to 100 and 0, respectively, and the hill slope was fixed to 1. The IC50 represents the concentration of a compound that is required for inhibiting a biological effect by 50% (Here, it is the concentration where Aβ peptide level is reduced by 50%).
(§8) To obtain the values reported in Table 3b, the data were calculated as percentage of the maximum amount of amyloid Beta 42 measured in the absence of the test compound. The sigmoidal dose response curves were analyzed using non-linear regression analysis with percentage of the control plotted against the log concentration of the compound. A 4-parameter equation was used to determine the IC50. The values reported in Table 3b are averaged IC50 values.
(In general: In an ELISA, binding on a coated surface is turned into a signal by an enzyme label.)

Experiment [4] relates to Aβtotal. Kind of experiment: Screening for γ-secretase-modulating activity, Method 1: Aβtotal sandwich ELISA on SKNBE2 cell media. Conditions: SKNBE2 cells carrying APP 695 wild type. As for the experimental part: as §5, §6
To quantify the amount of Aβtotal in the cell supernatant, samples and standards were added to a 6E10-coated plate. The plate was allowed to incubate overnight at 4° C. in order to allow formation of the antibody-amyloid complex. Following this incubation and subsequent wash steps a selective anti-Aβ-antibody conjugate (biotinylated 4G8) was added and incubated for a minimum of 1 hour in order to allow formation of the antibody-Amyloid-antibody-complex. After incubation and appropriate wash steps, a Streptavidine-Peroxidase-Conjugate was added, followed 30 minutes later by an addition of Quanta Blu fluorogenic peroxidase substrate according to the manufacturer's instructions (Pierce Corp., Rockford, Ill.).
as §7, §8

[5] abbreviates: Table 3a, 18 hours, XLfit, top/bottom fixed to 100 and 0, hill slope 1.
[6] abbreviates: Table 3b, non-linear regression of % of control, averaged IC50 values.
[7] abbreviates: Homo sapiens, Table 3b, non-linear regression of % of control, averaged IC50 values.

The structures appear in SMILES notation.

In the case of `COc1cc(Nc2cccc3c2nc(C(C)c2ccc(Cl)cc2)n3C)ccc1-n1cnc(C)n1` (racemic) [Compound 122], the IC50 (commonly the concentration that inhibits the measured activity by half) was 372 nM in experiment [1] and above 10000 nM in experiment [2].

Regarding `COc1cc(Nc2cccc3c2nc(CC(C)C)n3CC(F)(F)F)ccc1-n1cnc(C)n1` [Compound 105], the IC50 in experiment [3] (setting [5]) turned out to be 129 nM; in experiment [3] (setting [6]), 129 nM; in experiment [4] (setting [5]), 2800 nM; in experiment [4] (setting [6]), 2500 nM.

Take `C=C(C)c1cc(Nc2ccc(-n3cnc(C)n3)c(OC)c2)c2nc(-c3ccc(F)cc3)n(C)c2n1` [Compound 109]: the IC50 in experiment [3] (setting [7]) was 32 nM; in experiment [4] (setting [7]), above 3000 nM.

With `Cc1cn(-c2ccc(Nc3cc(C)nc4c3nc(-c3ccc(F)cc3)n4C)cc2F)cn1` [Compound 112], the half-maximal inhibitory concentration (IC50) in experiment [1] (Homo sapiens) is 19 nM; in experiment [2] (Homo sapiens), above 10000 nM.

Consider `COc1cc(Nc2cc(C)nc3c2nc(-c2ccc(F)cc2)n3C)ccc1-n1cnc(C)n1` [Compound 113], for which the 50% inhibitory concentration (IC50) in experiment [1] (Homo sapiens) was 35 nM; in experiment [2] (Homo sapiens) it was above 10000 nM.

As to `COc1cc(Nc2cccc3c2nc(-c2ccc(F)cc2)n3C)ccc1-n1cnc(CO)c1` [Compound 118], the figures for the 50% inhibitory concentration (IC50) in experiment [3] (setting [6]) and in experiment [4] (setting [6]) were 69 nM and above 3000 nM, respectively.

As for `COCc1cn(-c2ccc(Nc3cccc4c3nc(-c3ccc(F)cc3)n4C)cc2OC)cn1` [Compound 119], the IC50 in experiment [1] (Homo sapiens) is 65 nM; in experiment [2] (Homo sapiens) it was above 10000 nM.

For `COc1cc(Nc2cccc3c2nc(C2(c4ccc(Cl)cc4)CC2)n3C)ccc1-n1cnc(C)n1` [Compound 123], the figures for the IC50 in experiment [1] and in experiment [2] were 145 nM and above 10000 nM, respectively.

As to `Cc1cn(-c2ccc(Nc3cccc4c3nc(-c3ccc(=O)n(C)c3)n4C)cc2F)cn1` [Compound 124], the IC50 in experiment [1] was 3890 nM; in experiment [2] it was above 10000 nM.

Turning to `Cc1cn(-c2ccc(Nc3cc(F)cc4c3nc(-c3ccc(F)cc3)n4C(C)C)cc2F)cn1` [Compound 125], the IC50 in experiment [1] is 26 nM; in experiment [2], above 10000 nM.

Regarding `COc1cc(Nc2cccc3c2nc(-c2cccc(Cl)c2)n3C(C)C)ccc1-n1cnc(C)n1` [Compound 126], the IC50 is 19 nM in experiment [1] and above 10000 nM in experiment [2].

For the compound `CCn1c(-c2cc(F)ccc2F)nc2c(Nc3ccc(-n4cnc(C)n4)c(OC)c3)cc(F)cc21` [Compound 127], the concentration for half-maximal inhibition (IC50) in experiment [3] (setting [6]) is 56 nM; in experiment [4] (setting [6]) it was above 3000 nM.

Turning to `COc1cc(Nc2cc(F)cc3c2nc(-c2ccccc2Cl)n3C)ccc1-n1cnc(C)n1` [Compound 128], the 50% inhibitory concentration (IC50) in experiment [3] (setting [6]) was 11 nM; in experiment [4] (setting [6]), above 3000 nM.

With `COc1nc(Nc2cccc3c2nc(-c2cc(F)cc(C(F)(F)F)c2)n3C)ccc1-n1cnc(C)c1` [Compound 132], the half-inhibitory concentration (IC50) turned out to be 5 nM in experiment [1] and 4570 nM in experiment [2].

Regarding `COc1nc(Nc2cccc3c2nc(-c2ccc(F)c(Br)c2)n3C)ccc1-n1cnc(C)c1` [Compound 133], the IC50 in experiment [1] (Homo sapiens) was 9 nM; in experiment [2] (Homo sapiens) it was above 10000 nM.

In the case of `COc1cc(-c2nc3c(Nc4ccc(-n5cnc(C)c5)c(OC)n4)cccc3n2C)ccc1Cl` [Compound 134], the figures for the 50% inhibitory concentration (IC50) in experiment [1] and in experiment [2] were 5 nM and 6920 nM, respectively.

Turning to `COc1cc(-c2nc3c(Nc4ccc(-n5cnc(C)n5)c(OC)c4)nc(C)cc3n2C)ccc1Cl` [Compound 135], the half-inhibitory concentration (IC50) in experiment [1] is 10 nM; in experiment [2], above 10000 nM.

As to `COc1ccccc1-c1nc2c(Nc3ccc(-n4cnc(C)c4)c(F)c3)nc(C)cc2n1C` [Compound 138], the half-inhibitory concentration (IC50) in experiment [1] was 126 nM; in experiment [2] it was above 10000 nM.

Turning to `Cc1cn(-c2ccc(Nc3nc(C)cc4c3nc(-c3ccccc3Cl)n4C)cc2F)cn1` [Compound 139], the figures for the IC50 in experiment [1] and in experiment [2] were 35 nM and above 10000 nM, respectively.

With `COc1cc(-c2nc3c(Nc4ccc(-n5cnc(C)c5)c(OC)n4)cc(F)cc3n2C)ccc1Cl` [Compound 140], the values for the half-inhibitory concentration (IC50) in experiment [1] and in experiment [2] were 4 nM and above 10000 nM, respectively.

Take `COc1cc(Nc2nccc3c2nc(-c2ccccc2Cl)n3C)ccc1-n1cnc(C)n1` [Compound 145]: the IC50 is 209 nM in experiment [3] (setting [6]) and above 3000 nM in experiment [4] (setting [6]).

`COc1cc(Nc2nc(Cl)cc3c2nc(-c2ccc(F)cc2)n3C)ccc1-n1cnc(C)n1` [Compound 156]: the half-maximal inhibitory concentration (IC50) in experiment [3] (setting [6]) was 58 nM; in experiment [4] (setting [6]) it was above 3000 nM.
